Measurements taken from PubChem BioAssay AID1963873 (Molecular Pharmacology Branch, DTP, NCI, 2024).

System: 276233-004-R-J1-PDC KRAS spheroids with HUVEC/MSC, viability
Assay: Anticancer human tumor 276233-004-R-J1-PDC patient-derived colon adenocarcinoma cell line growth inhibition [KRAS2]
Details: for IC50: curve of first compound; for viability, T/C: stronger effect = lower value
In short: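 Combination screen of spheroid viability in tumor-cell co-cultures with endothelial (HUVEC) and mesenchymal stem cell stroma. Each agent was tested in half-log dilutions, topping at clinical Cmax or at 10 microM without a known Cmax.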

[1] = second compound 0.1 µM, first compound 0.0316 µM
[2] = second compound 0.1 µM, first compound 0.1 µM
[3] = second compound 0.1 µM, first compound 0.316 µM
[4] = second compound 0.1 µM, first compound 1 µM
[5] = second compound 0.1 µM, first compound 3.16 µM
[6] = second compound 0.1 µM, first compound 10 µM
[7] = second compound 0.316 µM, first compound 0.0316 µM
[8] = second compound 0.316 µM, first compound 0.1 µM
[9] = second compound 0.316 µM, first compound 0.316 µM
[10] = second compound 0.316 µM, first compound 1 µM
[11] = second compound 0.316 µM, first compound 3.16 µM
[12] = second compound 0.316 µM, first compound 10 µM
[13] = second compound 1 µM, first compound 0.0316 µM
[14] = second compound 1 µM, first compound 0.1 µM
[15] = second compound 1 µM, first compound 0.316 µM
[16] = second compound 1 µM, first compound 1 µM
[17] = second compound 1 µM, first compound 3.16 µM
[18] = second compound 1 µM, first compound 10 µM
[19] = second compound 3.16 µM, first compound 0.0316 µM
[20] = second compound 3.16 µM, first compound 0.1 µM
[21] = second compound 3.16 µM, first compound 0.316 µM
[22] = second compound 3.16 µM, first compound 1 µM
[23] = second compound 3.16 µM, first compound 3.16 µM
[24] = second compound 3.16 µM, first compound 10 µM
[25] = second compound 10 µM, first compound 0.0316 µM
[26] = second compound 10 µM, first compound 0.1 µM
[27] = second compound 10 µM, first compound 0.316 µM
[28] = second compound 10 µM, first compound 1 µM
[29] = second compound 10 µM, first compound 3.16 µM
[30] = second compound 10 µM, first compound 10 µM
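Further: cells exposed to agents for seven days before viability read.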
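Wherever viability, T/C is given: 100% = DMSO vehicle control wells and lower values mean fewer viable cells.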

COc1cc(Nc2ncc3c(n2)-c2ccc(Cl)cc2C(c2c(F)cccc2OC)=NC3)ccc1C(=O)O + C=CC(=O)N1CCN(c2nc(OCC3CCCN3C)nc3c2CCN(c2cccc4cccc(C)c24)C3)CC1CC#N
IC50 (second compound 0.0316 µM): > 10 µM | IC50 (second compound 0.1 µM): > 10 µM | IC50 (second compound 0.316 µM): > 10 µM | IC50 (second compound 1 µM): > 10 µM | IC50 (second compound 3.16 µM): 2.12 µM | viability, T/C (second compound 0.0316 µM, first compound 0.0316 µM): 98.9% | viability, T/C (second compound 0.0316 µM, first compound 0.1 µM): 85.5% | viability, T/C (second compound 0.0316 µM, first compound 0.316 µM): 89.2% | viability, T/C (second compound 0.0316 µM, first compound 1 µM): 86.2% | viability, T/C (second compound 0.0316 µM, first compound 3.16 µM): 77.9% | viability, T/C (second compound 0.0316 µM, first compound 10 µM): 77% | viability, T/C [1]: 85.9% | viability, T/C [2]: 91.1% | viability, T/C [3]: 82.2% | viability, T/C [4]: 73.6% | viability, T/C [5]: 83.3% | viability, T/C [6]: 81% | viability, T/C [7]: 94.5% | viability, T/C [8]: 79% | viability, T/C [9]: 70.9% | viability, T/C [10]: 67.8% | viability, T/C [11]: 83.1% | viability, T/C [12]: 63.9% | viability, T/C [13]: 79.8% | viability, T/C [14]: 81.3% | viability, T/C [15]: 94.9% | viability, T/C [16]: 96.9% | viability, T/C [17]: 67.2% | viability, T/C [18]: 70.5% | viability, T/C [19]: 45.9% | viability, T/C [20]: 64% | viability, T/C [21]: 55.7% | viability, T/C [22]: 54.1% | viability, T/C [23]: 47.4% | viability, T/C [24]: 26.9%

CC1(C)CCC(CN2CCN(c3ccc(C(=O)NS(=O)(=O)c4ccc(NCC5CCOCC5)c([N+](=O)[O-])c4)c(Oc4cnc5[nH]ccc5c4)c3)CC2)=C(c2ccc(Cl)cc2)C1 + COc1cc2nc(C)nc(NC(C)c3cc(N)cc(C(F)(F)F)c3)c2cc1OC1CCOC1
IC50 (second compound 0.1 µM): > 10 µM | IC50 (second compound 0.316 µM): > 10 µM | IC50 (second compound 1 µM): > 10 µM | IC50 (second compound 3.16 µM): > 10 µM | IC50 (second compound 10 µM): < 0.0316 µM | viability, T/C [1]: 97.5% | viability, T/C [2]: 97% | viability, T/C [3]: 73.6% | viability, T/C [4]: 95.5% | viability, T/C [5]: 68.8% | viability, T/C [6]: 69.7% | viability, T/C [7]: 104% | viability, T/C [8]: 84.8% | viability, T/C [9]: 95.9% | viability, T/C [10]: 96.3% | viability, T/C [11]: 67% | viability, T/C [12]: 72.8% | viability, T/C [13]: 102% | viability, T/C [14]: 87.3% | viability, T/C [15]: 89.6% | viability, T/C [16]: 87.3% | viability, T/C [17]: 70.1% | viability, T/C [18]: 60.6% | viability, T/C [19]: 79.1% | viability, T/C [20]: 120% | viability, T/C [21]: 81.8% | viability, T/C [22]: 103% | viability, T/C [23]: 78.3% | viability, T/C [24]: 57.8% | viability, T/C [25]: 23.9% | viability, T/C [26]: 31.8% | viability, T/C [27]: 25% | viability, T/C [28]: 41.3% | viability, T/C [29]: 38.8% | viability, T/C [30]: 54.8%

COC(=O)c1ccc2c(C(=Nc3ccc(N(C)C(=O)CN4CCN(C)CC4)cc3)c3ccccc3)c(O)[nH]c2c1 + CNCc1ccccc1-c1csc(C(C)Nc2nc(C)nc3cc(OC)c(OC)cc23)c1
IC50 (second compound 0.1 µM): > 10 µM | IC50 (second compound 0.316 µM): > 10 µM | IC50 (second compound 1 µM): 1.14 µM | IC50 (second compound 3.16 µM): < 0.0316 µM | IC50 (second compound 10 µM): < 0.0316 µM | viability, T/C [1]: 95.9% | viability, T/C [2]: 80.5% | viability, T/C [3]: 87.7% | viability, T/C [4]: 70.1% | viability, T/C [5]: 87.7% | viability, T/C [6]: 70.1% | viability, T/C [7]: 95.5% | viability, T/C [8]: 91.7% | viability, T/C [9]: 71.4% | viability, T/C [10]: 74.5% | viability, T/C [11]: 70.4% | viability, T/C [12]: 74.5% | viability, T/C [13]: 59.4% | viability, T/C [14]: 58.5% | viability, T/C [15]: 56.5% | viability, T/C [16]: 54.6% | viability, T/C [17]: 12.1% | viability, T/C [18]: 14.6% | viability, T/C [19]: 2.33% | viability, T/C [20]: 4.5% | viability, T/C [21]: 7.73% | viability, T/C [22]: 3.3% | viability, T/C [23]: 9.99% | viability, T/C [24]: 5.4% | viability, T/C [25]: 3.64% | viability, T/C [26]: 3.36% | viability, T/C [27]: 4.73% | viability, T/C [28]: 6.01% | viability, T/C [29]: 1.8% | viability, T/C [30]: 0.53%
